Assay results as given in patent publication US10414811B2, “Protease-resistant lipidated GLP-1 analogs” (MEDIMMUNE LIMITED, priority 2015, dated 2019).
Where two headings read alike, the source gives them in different places. Numbered stars: 1 amine (or outer) side, 2 acyl side, 3 side chain; on linkers, the order of the positions; unused ones are H or OH. Square brackets hold non-standard residues; d marks the D form. Side chains are listed from the residue outwards. Peptide text beside a SMILES is read from it. * marks the point of attachment. C18 diacid = O=C(O)CCCCCCCCCCCCCCCCC(=O)*; γGlu = O=C(O)[C@H](CCC(=O)[*:2])N[*:1]; Palmitoyl = CCCCCCCCCCCCCCCC(=O)*; αMeF = C[C@](N)(Cc1ccccc1)C(=O)O; αMeK = C[C@](N)(CCCCN)C(=O)O; αMeS = C[C@](N)(CO)C(=O)O; AEEA = NCCOCCOCC(=O)O; Aib = CC(C)(N)C(=O)O

Key:
Format in all cases: cell-based
[1] = target: T1, human glucose-dependent insulinotropic peptide receptor (GIPR) (Homo sapiens, UniProt P48546); assay: cAMP assay, human GIPR cells; conditions: cAMP assay
T1 construct: expressed in transfected cells
T1 sequence (P48546 22-466): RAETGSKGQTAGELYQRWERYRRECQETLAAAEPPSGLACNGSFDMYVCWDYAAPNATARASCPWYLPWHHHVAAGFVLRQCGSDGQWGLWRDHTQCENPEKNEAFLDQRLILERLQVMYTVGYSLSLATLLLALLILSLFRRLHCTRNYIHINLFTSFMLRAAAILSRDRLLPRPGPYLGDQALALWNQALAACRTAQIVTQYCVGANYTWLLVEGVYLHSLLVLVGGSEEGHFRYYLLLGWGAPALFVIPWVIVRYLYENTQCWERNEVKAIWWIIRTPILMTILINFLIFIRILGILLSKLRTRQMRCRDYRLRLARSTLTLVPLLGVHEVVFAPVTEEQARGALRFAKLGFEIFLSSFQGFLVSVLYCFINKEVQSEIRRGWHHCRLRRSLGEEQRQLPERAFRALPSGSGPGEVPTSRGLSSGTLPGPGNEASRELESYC
In short: (§1)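 Peptide-stimulated cAMP measured by two-step HTRF after a 30 min room-temperature incubation with receptor-expressing cells (hGLP-1R, hGIPR at 1×10^5 cells/ml; hGCGR at 2×10^5 cells/ml). Duplicate dilutions; EC50 from 4-parameter logistic fit of % Delta F.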

[2] = target: T2, GLP-1R (INS1e assay) (Rattus norvegicus, UniProt P32301); assay: INS1e assay, cAMP activity at GLP-1R; conditions: mono-lipidated peptides
T2 construct: endogenous in cells; host or cells: INS-1E cells
T2 sequence (P32301 22-463): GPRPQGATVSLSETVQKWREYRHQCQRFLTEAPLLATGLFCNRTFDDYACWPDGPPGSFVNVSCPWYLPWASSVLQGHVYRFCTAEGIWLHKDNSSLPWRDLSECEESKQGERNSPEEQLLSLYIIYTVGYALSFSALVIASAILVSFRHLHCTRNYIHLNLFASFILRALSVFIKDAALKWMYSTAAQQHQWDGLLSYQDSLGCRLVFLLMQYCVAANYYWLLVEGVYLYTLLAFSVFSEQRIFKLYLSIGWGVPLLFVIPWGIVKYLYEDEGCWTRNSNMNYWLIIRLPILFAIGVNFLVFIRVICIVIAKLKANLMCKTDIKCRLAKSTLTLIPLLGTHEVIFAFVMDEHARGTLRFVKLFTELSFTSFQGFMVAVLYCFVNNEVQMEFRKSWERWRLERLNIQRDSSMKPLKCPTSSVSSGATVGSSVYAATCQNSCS
In short: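 cAMP was quantified by two-step HTRF, using anti-cAMP cryptate donor and cAMP-d2 acceptor, each diluted 1/20 in conjugate and lysis buffer. EC50 values of the synthetic peptides were derived from the cAMP readout.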

[3] = target: T3, human glucagon receptor (GCGR) (Homo sapiens, UniProt P47871); assay: cAMP assay, human GCGR cells; conditions: cAMP assay
T3 construct: expressed in transfected cells
In short: as §1

[4] = target: T4, human GLP-1 receptor (GLP-1R) (Homo sapiens, UniProt P43220); assay: cAMP assay, human GLP-1R cells
T4 construct: expressed in transfected cells
In short: as §1

[5] = first determination (n1), read-out: Primary assay EC50 GIP-R (n1)
[6] = second determination (n2), read-out: Primary assay EC50 GIP-R (n2)
[7] = mean of n1 and n2, read-out: INS1e assay EC50 Mean pM GLP-1R
[8] = replicate n1, read-out: INS1e assay EC50 GLP-1R n1
[9] = replicate n2, read-out: INS1e assay EC50 GLP-1R n2
[10] = first determination (n1), read-out: Primary assay EC50 Gluc-R (n1)
[11] = second determination (n2), read-out: Primary assay EC50 Gluc-R (n2)
[12] = cAMP assay, first determination (n1), read-out: Primary assay EC50 GLP-1R n1
[13] = cAMP assay, second determination (n2), read-out: Primary assay EC50 GLP-1R n2
[14] = mean of n1 and n2, read-out: Mean pM GLP-1R

T4 sequence (P43220 24-463): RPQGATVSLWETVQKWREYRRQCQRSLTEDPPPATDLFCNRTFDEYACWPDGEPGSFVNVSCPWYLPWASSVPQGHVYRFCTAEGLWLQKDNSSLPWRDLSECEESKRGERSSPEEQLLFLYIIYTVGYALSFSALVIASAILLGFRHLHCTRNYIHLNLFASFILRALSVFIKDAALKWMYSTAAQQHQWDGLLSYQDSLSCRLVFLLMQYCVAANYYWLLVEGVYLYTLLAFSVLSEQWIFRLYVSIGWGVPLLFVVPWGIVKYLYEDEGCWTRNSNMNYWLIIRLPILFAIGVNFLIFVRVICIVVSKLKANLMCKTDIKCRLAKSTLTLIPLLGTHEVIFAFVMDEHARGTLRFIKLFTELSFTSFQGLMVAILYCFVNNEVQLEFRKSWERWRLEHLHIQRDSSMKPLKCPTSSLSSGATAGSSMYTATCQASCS
T3 sequence (P47871 26-477): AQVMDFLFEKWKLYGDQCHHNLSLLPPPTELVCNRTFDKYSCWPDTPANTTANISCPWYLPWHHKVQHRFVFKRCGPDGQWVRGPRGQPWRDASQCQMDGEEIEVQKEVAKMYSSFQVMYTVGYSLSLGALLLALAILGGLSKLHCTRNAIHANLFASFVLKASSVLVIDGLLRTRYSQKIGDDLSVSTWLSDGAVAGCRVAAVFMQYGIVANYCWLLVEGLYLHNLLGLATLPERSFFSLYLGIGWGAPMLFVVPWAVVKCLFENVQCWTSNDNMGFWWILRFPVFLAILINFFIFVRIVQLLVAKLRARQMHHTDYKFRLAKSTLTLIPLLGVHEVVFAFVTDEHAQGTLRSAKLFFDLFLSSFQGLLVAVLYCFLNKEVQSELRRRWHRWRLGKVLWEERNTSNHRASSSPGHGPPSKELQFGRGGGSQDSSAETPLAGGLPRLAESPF

Row | SMILES | EC50 [1, 5] | EC50 [1, 6] | EC50 [2, 7] | EC50 [2, 8] | EC50 [2, 9] | EC50 [3, 10] | EC50 [3, 11] | EC50 [4, 12] | EC50 [4, 13] | EC50 [4, 14] | EC50 ([1]; Primary assay EC50 GIP-R (n1), first determination (n1)) | EC50 ([1]; read-out: Primary assay EC50 GIP-R (n2), second determination (n2)) | EC50 ([3]; Primary assay EC50 Gluc-R (n1), first determination (n1)) | EC50 ([3]; read-out: Primary assay EC50 Gluc-R (n2), second determination (n2))
1 | CCCCCCCCCCCCCCCC(=O)N[C@@H](CCC(=O)NCCCC[C@H](NC(=O)[C@](C)(CCCCN)NC(=O)[C@H](C)NC(=O)[C@H](C)NC(=O)[C@H](CCC(=O)O)NC(=O)CNC(=O)[C@H](CCC(=O)O)NC(=O)[C@H](CC(C)C)NC(=O)[C@](C)(Cc1ccccc1)NC(=O)[C@H](CO)NC(=O)[C@](C)(CO)NC(=O)[C@@H](NC(=O)[C@H](CC(=O)O)NC(=O)[C@H](CO)NC(=O)[C@@H](NC(=O)[C@](C)(Cc1ccccc1)NC(=O)[C@H](CO)NC(=O)CNC(=O)[C@H](CCC(=O)O)NC(=O)C(C)(C)NC(=O)[C@@H](N)Cc1c[nH]cn1)[C@@H](C)O)C(C)C)C(=O)N[C@@](C)(Cc1ccccc1)C(=O)N[C@H](C(=O)N[C@@H](C)C(=O)N[C@@](C)(Cc1ccccc1)C(=O)N[C@H](C(=O)N[C@H](C(=O)N[C@@](C)(CCCCN)C(=O)NCC(=O)NCC(N)=O)C(C)C)C(C)C)[C@@H](C)CC)C(=O)O [compound 79] (H-H[Aib]EGS[αMeF]TSDV[αMeS]S[αMeF]LEGEAA[αMeK]K([γGlu-Palmitoyl])[αMeF]IA[αMeF]VV[αMeK]GG-NH2) | ≥ 28000 pM | ≥ 28000 pM | 408 pM | 289 pM | 527 pM | ≥ 28000 pM | ≥ 28000 pM | 3.9 pM | 2.3 pM | 3.1 pM | – | – | – | –
2 | CCCCCCCCCCCCCCCCCC(=O)NCCOCCOCC(=O)NCCOCCOCC(=O)NCCOCCOCC(=O)NCCCC[C@H](NC(=O)[C@H](C)NC(=O)[C@H](C)NC(=O)[C@H](CCC(=O)O)NC(=O)CNC(=O)[C@H](CCC(=O)O)NC(=O)[C@H](CC(C)C)NC(=O)[C@](C)(Cc1ccccc1)NC(=O)[C@H](CO)NC(=O)[C@](C)(CO)NC(=O)[C@@H](NC(=O)[C@H](CC(=O)O)NC(=O)[C@H](CO)NC(=O)[C@@H](NC(=O)[C@](C)(Cc1ccccc1)NC(=O)[C@H](CO)NC(=O)CNC(=O)[C@H](CCC(=O)O)NC(=O)C(C)(C)NC(=O)[C@@H](N)Cc1c[nH]cn1)[C@@H](C)O)C(C)C)C(=O)N[C@@H](CCC(=O)O)C(=O)N[C@@](C)(Cc1ccccc1)C(=O)N[C@H](C(=O)N[C@@H](C)C(=O)N[C@@](C)(Cc1ccccc1)C(=O)N[C@H](C(=O)N[C@H](C(=O)N[C@@](C)(CCCCN)C(=O)NCC(=O)NCC(N)=O)C(C)C)C(C)C)[C@@H](C)CC [compound 154] | ≥ 26000 pM | ≥ 26000 pM | 25 pM | 32.3 pM | 17.1 pM | ≥ 26000 pM | ≥ 26000 pM | 2.8 pM | 2.3 pM | 2.5 pM | – | – | – | –
3 | CC[C@H](C)[C@H](NC(=O)[C@](C)(Cc1ccccc1)NC(=O)[C@H](CCCCNC(=O)COCCOCCNC(=O)COCCOCCNC(=O)CC[C@H](NC(=O)CCCCCCCCCCCCCCCCC(=O)O)C(=O)O)NC(=O)[C@](C)(CCCCN)NC(=O)[C@H](C)NC(=O)[C@H](C)NC(=O)[C@H](CCC(=O)O)NC(=O)CNC(=O)[C@H](CCC(=O)O)NC(=O)[C@H](CC(C)C)NC(=O)[C@](C)(Cc1ccccc1)NC(=O)[C@H](CO)NC(=O)[C@](C)(CO)NC(=O)[C@@H](NC(=O)[C@H](CC(=O)O)NC(=O)[C@H](CO)NC(=O)[C@@H](NC(=O)[C@](C)(Cc1ccccc1)NC(=O)[C@H](CO)NC(=O)CNC(=O)[C@H](CCC(=O)O)NC(=O)C(C)(C)NC(=O)[C@@H](N)Cc1c[nH]cn1)[C@@H](C)O)C(C)C)C(=O)N[C@@H](C)C(=O)N[C@@](C)(Cc1ccccc1)C(=O)N[C@H](C(=O)N[C@H](C(=O)N[C@@](C)(CCCCN)C(=O)NCC(=O)NCC(N)=O)C(C)C)C(C)C [compound 108] (H-H[Aib]EGS[αMeF]TSDV[αMeS]S[αMeF]LEGEAA[αMeK]K([AEEA-AEEA-γGlu-C18 diacid])[αMeF]IA[αMeF]VV[αMeK]GG-NH2; N-terminus assumed) | ≥ 25000 pM | ≥ 25400 pM | 248 pM | 38 pM | 458 pM | ≥ 25000 pM | ≥ 25400 pM | 3.8 pM | 3.46 pM | 4 pM | – | – | – | –
4 | CC[C@H](C)[C@H](NC(=O)[C@](C)(Cc1ccccc1)NC(=O)[C@H](CCC(=O)O)NC(=O)[C@H](CCCCNC(=O)CC[C@H](NC(=O)CCCCCCCCCCCOc1ccc(C(=O)O)cc1)C(=O)O)NC(=O)[C@H](C)NC(=O)[C@H](C)NC(=O)[C@H](CCC(=O)O)NC(=O)CNC(=O)[C@H](CCC(=O)O)NC(=O)[C@H](CC(C)C)NC(=O)[C@](C)(Cc1ccccc1)NC(=O)[C@H](CO)NC(=O)[C@](C)(CO)NC(=O)[C@@H](NC(=O)[C@H](CC(=O)O)NC(=O)[C@H](CO)NC(=O)[C@@H](NC(=O)[C@](C)(Cc1ccccc1)NC(=O)[C@H](CO)NC(=O)CNC(=O)[C@H](CCC(=O)O)NC(=O)C(C)(C)NC(=O)[C@@H](N)Cc1c[nH]cn1)[C@@H](C)O)C(C)C)C(=O)N[C@@H](C)C(=O)N[C@@](C)(Cc1ccccc1)C(=O)N[C@H](C(=O)N[C@H](C(=O)N[C@@](C)(CCCCN)C(=O)NCC(=O)NCC(N)=O)C(C)C)C(C)C [compound 137] | – | – | 50 pM | 63.7 pM | 36.2 pM | – | – | 6.6 pM | 3.8 pM | 5.2 pM | ≥ 27000 pM | ≥ 27000 pM | ≥ 27000 pM | ≥ 27000 pM
5 | CCCCCCCCCCCC(=O)NCCOCCOCC(=O)NCCOCCOCC(=O)NCCOCCOCC(=O)NCCCC[C@H](NC(=O)[C@H](C)NC(=O)[C@H](C)NC(=O)[C@H](CCC(=O)O)NC(=O)CNC(=O)[C@H](CCC(=O)O)NC(=O)[C@H](CC(C)C)NC(=O)[C@](C)(Cc1ccccc1)NC(=O)[C@H](CO)NC(=O)[C@](C)(CO)NC(=O)[C@@H](NC(=O)[C@H](CC(=O)O)NC(=O)[C@H](CO)NC(=O)[C@@H](NC(=O)[C@](C)(Cc1ccccc1)NC(=O)[C@H](CO)NC(=O)CNC(=O)[C@H](CCC(=O)O)NC(=O)C(C)(C)NC(=O)[C@@H](N)Cc1c[nH]cn1)[C@@H](C)O)C(C)C)C(=O)N[C@@H](CCC(=O)O)C(=O)N[C@@](C)(Cc1ccccc1)C(=O)N[C@H](C(=O)N[C@@H](C)C(=O)N[C@@](C)(Cc1ccccc1)C(=O)N[C@H](C(=O)N[C@H](C(=O)N[C@@](C)(CCCCN)C(=O)NCC(=O)NCC(N)=O)C(C)C)C(C)C)[C@@H](C)CC [compound 136] | ≥ 26000 pM | ≥ 26000 pM | 37 pM | 52.6 pM | 21.5 pM | ≥ 26000 pM | ≥ 26000 pM | 3.5 pM | 2.5 pM | 3 pM | – | – | – | –
